Structures are written as SMILES. Like-named read-outs stand apart in the source and are kept apart here.

Data set [1] relates to HCV Con1 subgenomic replicon in Huh-7 cells (NK/luc-ubi-neo). Description: HCV replicon assay (luciferase reporter). The following applies: anti-HCV activity, class symbols; read-out: Range of EC50 in HCV replicon assay. It is filed as cell-based. Here is the method: A human hepatoma cell line (Huh-7) containing replicating HCV Con1 subgenomic replicon with a luciferase reporter gene (luc-ubi-neo) was used to evaluate anti-HCV activity of the compounds. In this assay, the level of luciferase signal correlates directly with the viral RNA replication. The HCV replicon-reporter cell line (NK/luc-ubi-neo) was cultured in DMEM medium supplemented with 10% fetal bovine serum and 0.5 mg/ml Geneticin (G418). Cells were maintained in a subconfluent state to ensure high levels of HCV replicon RNA synthesis.
To evaluate the antiviral activity of compounds, serial dilutions were prepared with concentrations ranging from 0.14 to 300 μM. Diluted compounds were transferred to a 96-well plate followed by the addition of replicon cells (6000 cells per well). Cells were incubated with the compounds for 48 hours after which luciferase activity was measured.
(A replicon is a self-replicating genome or part of one, used to study replication in cells.)

Data set [2] deals with Huh-7 cells. The source says:
A Huh-7 cell line carrying a luciferase reporter gene (driven by a HIV LTR promoter) stably integrated into the chromosome was used to analyze the cytotoxic effect of the selected compounds. This cell line (LTR-luc) was maintained in DMEM medium with 10% FBS. Design of the cytotoxicity assay was similar to that of the HCV replicon assay.

Data set [3] addresses T1, HCV replicase complexes (Hepatitis C virus genotype 1b, UniProt Q9WMX2).
T1 construct: viral non-structural proteins (NS3, NS4A, NS4B, NS5A and NS5B); expressed in transfected cells; host or cells: HCV subgenomic replicon cell line (I389/NS3-3)
The data set is described as follows: In vitro HCV replicase complex assay. It is filed as biochemical. The following applies: crude membrane fraction of I389/NS3-3 replicon cells. Here is the method: Crude membrane fraction containing the replicase complexes (RC) was isolated from the HCV subgenomic replicon cell line (I389/NS3-3) (Lohmann et al., Science 285:110-113, 1999) through Dounce homogenization and high-speed centrifugation (Lai et al., J. Virol. 73:2295-2300). Standard assay mixtures contained 50 mM HEPES (pH 7.3), 10 mM KCl, 10 mM MgCl2, 20 units of ribonuclease inhibitor, 10 μg/ml actinomycin D, 0.5 mM of ATP, GTP, CTP, 10 μCi of [α-^33P] UTP and 0.5 μl of the membrane fraction in a total volume of 20 μl. To determine the inhibitory effect of compounds on the HCV replicase complexes, pre-incubation of the RC membrane fraction with tested compounds was performed in a reaction mixture at 4° C. for 15 minutes. The reaction was then initiated by the addition of the radiolabeled UTP and cold nucleotides and incubated at 30° C. for 1 hour. Products were extracted with phenol/chloroform, precipitated with ethanol, and separated on a 1% agarose gel. After electrophoresis, the gel was dried prior to autoradiography. Radioactivity incorporated into viral RNA was quantitated by using a Phosphorimager (Amersham Biosciences Corp., Piscataway, N.J.) and was used to determine the IC50 value. A number of the exemplary compounds were potent inhibitors that blocked viral RNA synthesis catalyzed by HCV replicase complexes, with IC50 values in the nM range (Table 2).

[4] abbreviates: read-out: Range of CC50 in cytotoxicity assay, cytotoxicity, class symbols.

T1 sequence (Q9WMX2 2420-3010, one chain of several): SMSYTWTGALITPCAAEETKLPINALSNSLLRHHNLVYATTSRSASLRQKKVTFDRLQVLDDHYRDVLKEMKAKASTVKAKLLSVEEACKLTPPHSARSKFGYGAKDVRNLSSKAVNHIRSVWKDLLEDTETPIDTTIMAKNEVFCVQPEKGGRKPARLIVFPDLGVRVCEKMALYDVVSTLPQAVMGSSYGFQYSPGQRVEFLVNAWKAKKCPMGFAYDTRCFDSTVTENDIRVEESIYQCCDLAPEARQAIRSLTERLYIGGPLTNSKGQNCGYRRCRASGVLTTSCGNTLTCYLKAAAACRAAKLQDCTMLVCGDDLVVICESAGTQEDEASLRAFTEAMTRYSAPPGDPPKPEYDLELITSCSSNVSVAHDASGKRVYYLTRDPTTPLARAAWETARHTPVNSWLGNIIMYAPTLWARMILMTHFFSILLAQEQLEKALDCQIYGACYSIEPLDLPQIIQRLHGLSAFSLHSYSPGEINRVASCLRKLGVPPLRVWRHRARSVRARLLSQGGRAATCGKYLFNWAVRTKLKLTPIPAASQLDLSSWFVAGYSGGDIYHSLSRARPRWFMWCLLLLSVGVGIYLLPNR

Take `N#Cc1c(Nc2ccccc2Cl)s[nH]c1=O`: in data set [1], the EC50 fell in the range of 10 to 50 µM. The CC50 in data set [2] was > 50 µM.
In the same order, the values of `COc1ccc(Nc2s[nH]c(=O)c2C#N)cc1` are 10 to 50 µM and > 50 µM.
In the same order, the values of `COc1ccccc1Nc1s[nH]c(=O)c1C#N` are 10 to 50 µM and > 50 µM.
The like results for `N#Cc1c(Nc2ccccc2C(F)(F)F)s[nH]c1=O` were, in that order, 10 to 50 µM and > 50 µM.
Turning to `CC(C)c1cccc(C(C)C)c1Nc1s[nH]c(=O)c1C#N`, in data set [1], the concentration for a half-maximal effect (EC50) is 10 to 50 µM. In addition, the CC50 in data set [2] is > 50 µM.
In the same order, the values of `CC(C)c1ccccc1Nc1s[nH]c(=O)c1C#N` are > 50 µM and > 50 µM.
On to `N#Cc1c(Nc2ccc(F)cc2)s[nH]c1=O`, for which the EC50 in data set [1] fell in the range of 10 to 50 µM. In addition, the CC50 in data set [2] was > 50 µM.
In the same order, the values of `COC(=O)c1cccc(Nc2s[nH]c(=O)c2C#N)c1` are > 50 µM and > 50 µM.
For `COC(=O)c1ccc(Nc2s[nH]c(=O)c2C#N)cc1`, in data set [1], the EC50 lay in the range of 10 to 50 µM. In data set [2] (setting [4]), the CC50 is > 50 µM.
In the case of `N#Cc1c(Nc2ccccc2F)s[nH]c1=O`, the EC50 in data set [1] is 10 to 50 µM. For the same compound, in data set [2], the 50% cytotoxic concentration (CC50) is > 50 µM.
In the case of `N#Cc1c(Nc2cc(C(F)(F)F)cc(C(F)(F)F)c2)s[nH]c1=O`, the EC50 in data set [1] was in the range of 1 to 10 µM. The 50% cytotoxic concentration (CC50) in data set [2] (setting [4]) was > 50 µM.
Regarding `COC(=O)c1ccccc1Nc1s[nH]c(=O)c1C#N`, the half-maximal effective concentration (EC50) in data set [1] was > 50 µM. Besides, the CC50 in data set [2] was > 50 µM.
As to `N#Cc1c(NC23CC4CC(CC(C4)C2)C3)s[nH]c1=O`, the EC50 in data set [1] was 1 to 10 µM. The CC50 in data set [2] is > 50 µM.
In the same order, the values of `N#Cc1c(Nc2ccc(Cl)cc2Cl)s[nH]c1=O` are 10 to 50 µM and > 50 µM.
In the same order, the values of `N#Cc1c(Nc2cccc(Cl)c2Cl)s[nH]c1=O` are > 50 µM and > 50 µM.
In the same order, the values of `N#Cc1c(NCC2CCCO2)s[nH]c1=O` (stereo not shown) are > 50 µM and > 50 µM.
Take `N#Cc1c(NCC2CCCCC2)s[nH]c1=O`: in data set [1], the 50% effective concentration (EC50) fell in the range of 1 to 10 µM. Moreover, the CC50 in data set [2] was > 50 µM.
The like results for `N#Cc1c(Nc2ccc(I)cc2)s[nH]c1=O` were, in that order, 1 to 10 µM and > 50 µM.
With `N#Cc1c(Nc2ccc(I)cc2Cl)s[nH]c1=O`, the EC50 in data set [1] lay in the range of 1 to 10 µM. In addition, in data set [2] (setting [4]), the CC50 was < 50 µM.
For the compound `N#Cc1c(Nc2ccc(I)c(Cl)c2)s[nH]c1=O`, the half-maximal effective concentration (EC50) in data set [1] was < 1 µM. In addition, in data set [2] (setting [4]), the CC50 was > 50 µM.
For the compound `N#Cc1c(Nc2ccc(C(=O)O)cc2)s[nH]c1=O`, the concentration giving a half-maximal response (EC50) in data set [1] is > 50 µM. Further, the CC50 in data set [2] was > 50 µM.
Regarding `CN(C)c1ccc(Nc2s[nH]c(=O)c2C#N)c2ccccc12`, the EC50 in data set [1] was > 50 µM. Also, the CC50 in data set [2] (setting [4]) is > 50 µM.
For `CN(C)c1ccc2ccccc2c1Nc1s[nH]c(=O)c1C#N`, in data set [1], the EC50 was > 50 µM. Moreover, in data set [2] (setting [4]), the CC50 was > 50 µM.
Regarding `N#Cc1c(NC2CCc3ccccc32)s[nH]c1=O` (stereo not shown), the EC50 in data set [1] lay in the range of 1 to 10 µM. The CC50 in data set [2] was > 50 µM.
Regarding `CCCC1CCC(c2ccc(Nc3s[nH]c(=O)c3C#N)cc2)CC1` (stereo not shown), the EC50 in data set [1] is 1 to 10 µM. The CC50 in data set [2] (setting [4]) was < 50 µM.
In the same order, the values of `N#Cc1c(Nc2ccc(C(=O)c3ccccc3)cc2)s[nH]c1=O` are 10 to 50 µM and > 50 µM.
Regarding `N#Cc1c(Nc2ccc(Cc3ccccc3)cc2)s[nH]c1=O`, in data set [1], the EC50 was > 50 µM. The CC50 in data set [2] was > 50 µM.
Consider `N#Cc1c(Nc2ccc(S(=O)(=O)Nc3ccccc3)cc2)s[nH]c1=O`, for which, in data set [1], the 50% effective concentration (EC50) is > 50 µM. Further, in data set [2], the CC50 is > 50 µM.
Consider `Cc1cccc(C)c1Sc1ccc(Nc2s[nH]c(=O)c2C#N)cc1`, for which, in data set [1], the EC50 is 1 to 10 µM. In data set [2] (setting [4]), the half-maximal cytotoxic concentration (CC50) is < 50 µM.
On to `N#Cc1c(NCCc2ccc(O)cc2)s[nH]c1=O`, for which the EC50 in data set [1] was > 50 µM. For the same compound, in data set [2], the 50% cytotoxic concentration (CC50) was > 50 µM.
Turning to `N#Cc1c(NCCc2cccs2)s[nH]c1=O`, in data set [1], the EC50 was > 50 µM. The CC50 in data set [2] was > 50 µM.
On to `N#Cc1c(Nc2cc(F)c(Br)c(F)c2)s[nH]c1=O`, for which, in data set [1], the EC50 was < 1 µM. For the same compound, in data set [2] (setting [4]), the CC50 was > 50 µM.
As to `N#Cc1c(Nc2cc(Cl)c(Cl)c(Cl)c2)s[nH]c1=O`, the EC50 in data set [1] is < 1 µM. In addition, the CC50 in data set [2] was < 50 µM.
The like results for `N#Cc1c(Nc2ccc(Cl)c(Cl)c2)s[nH]c1=O` were, in that order, < 1 µM and > 50 µM.
Take `N#Cc1c(Nc2ccc(Br)c(F)c2)s[nH]c1=O`: the EC50 in data set [1] was < 1 µM. Also, in data set [2] (setting [4]), the CC50 was > 50 µM.
Regarding `N#Cc1c(Nc2ccc(Br)c(Cl)c2)s[nH]c1=O`, in data set [1], the EC50 is < 1 µM. Moreover, the CC50 in data set [2] is > 50 µM.
Turning to `N#Cc1c(Nc2cc(Br)cc(C(F)(F)F)c2)s[nH]c1=O`, the EC50 in data set [1] was < 1 µM. Besides, the CC50 in data set [2] (setting [4]) was > 50 µM.
With `N#Cc1c(Nc2ccc(Br)cn2)s[nH]c1=O`, in data set [1], the EC50 lay in the range of 10 to 50 µM. In addition, the CC50 in data set [2] (setting [4]) was > 50 µM.
`N#Cc1c(Nc2ccc(Br)nc2)s[nH]c1=O`: the EC50 in data set [1] lay within 10 to 50 µM. Besides, the 50% cytotoxic concentration (CC50) in data set [2] was > 50 µM.
`N#Cc1c(Nc2ccc(Cl)cn2)s[nH]c1=O`: the EC50 in data set [1] was 10 to 50 µM. The CC50 in data set [2] (setting [4]) is > 50 µM.
For `N#Cc1c(Nc2ccnc(Cl)c2)s[nH]c1=O`, in data set [1], the EC50 lay in the range of 10 to 50 µM. For the same compound, the CC50 in data set [2] is > 50 µM.
As for `N#Cc1c(Nc2ccc(Br)c(C(F)(F)F)c2)s[nH]c1=O`, the EC50 in data set [1] is 1 to 10 µM. In data set [2] (setting [4]), the CC50 was > 50 µM.
In the case of `N#Cc1c(Nc2cccc(Br)n2)s[nH]c1=O`, the EC50 in data set [1] lay within 10 to 50 µM. For the same compound, the CC50 in data set [2] (setting [4]) is > 50 µM.
For `N#Cc1c(Nc2cc(Cl)nc(Cl)c2)s[nH]c1=O`, the concentration for a half-maximal effect (EC50) in data set [1] lay within 1 to 10 µM. The cytotoxic concentration (CC50) in data set [2] (setting [4]) was < 50 µM.
With `N#Cc1c(Nc2ccc(C(F)(F)F)cn2)s[nH]c1=O`, the concentration for a half-maximal effect (EC50) in data set [1] fell in the range of 10 to 50 µM. In addition, the CC50 in data set [2] is > 50 µM.
As for `N#Cc1c(O)nsc1Nc1cc(Cl)cc(Cl)c1`, the IC50 in data set [3] is < 0.05 µM.
Turning to `N#Cc1c(O)nsc1Nc1ccc(Cl)cc1`, the IC50 in data set [3] is 0.05 to 0.1 µM.
The same measure, in the same setting: as for `N#Cc1c(Nc2ccc(Br)cc2)s[nH]c1=O`, the figure is < 0.05 µM; as for `N#Cc1c(O)nsc1Nc1cc(C(F)(F)F)cc(C(F)(F)F)c1`, 0.1 to 0.25 µM.
With `N#Cc1c(Nc2ccc(Cl)c(C(F)(F)F)c2)s[nH]c1=O` [drawing 430], the EC50 in data set [1] was in the range of 1 to 10 µM. In data set [2], the CC50 is > 50 µM.
In turn, `N#Cc1c(Nc2ccc(Cl)c(C(F)(F)F)c2)s[nH]c1=O` [drawing 483] returned an IC50 in data set [3] of 0.05 to 0.1 µM.

Usually EC50 stands for the midpoint of the concentration-response curve. The term CC50 denotes the concentration at which the toxic effect on the cells reaches its halfway point. Usually IC50 stands for the point on the concentration scale where inhibition reaches its midpoint.

Values taken from patent US20060217390A1, “Cycloalkl, aryl and heteroaryl amino isothiazoles for the treatment of Hepatitis C virus” (priority 2005, published 2006).
